The subject of test [1] is Staphylococcus aureus. Kind of test: inactivation of microorganisms in water, number of cells in supernatant. It is filed as cell-based. On the procedure: (§1) Each test microbe was inoculated to nutrient broth and cultured with shaking at the optimum temperature of the test microbe until the late logarithmic phase. From the microbe culture, the microbe was collected, and the collected microbe was washed with 1.5 mL of physiological saline 2 to 3 times (centrifugation at 13000 rpm for 1 minute) and suspended in 1.5 mL of physiological saline. From the suspension, a 1 mL aliquot was recovered, and this was added to 9 mL of sterile water, followed by sufficient stirring of the resulting suspension (this was used as 10^−1 dilution). From the 10^−1 dilution, 10^−2 to 10^−8 dilutions were sequentially prepared. Each dilution was smeared on a film medium (Sanita-kun; for E. coli and coliform bacteria, for Staphylococcus aureus, for Salmonella, for aerobic bacteria or for fungi: Chisso Corporation) in an amount of 1 mL, followed by culturing at the optimum temperature of the test microbe for 24 to 72 hours and measurement of the number of cells on the film medium.
(§2) To a sterilized beaker, 500 mL of sterilized water was placed, and 0.20 mL of microbe culture of 10^6 to 10^10 cells/mL was inoculated thereto, to attain an initial cell number of 10^3 to 10^7 cells/mL. Unless otherwise specified, the pH was 6 to 8. After stirring the suspension gently for 5 minutes, PGα21Ca (Nippon Poly-Glu Co., Ltd.) and/or a microbiostatic agent or microbicide was/were added thereto such that a predetermined final concentration(s) was/were attained. After gentle stirring at room temperature for 10 to 15 minutes, the suspension was left to stand for a predetermined length of time. The supernatant was collected and diluted appropriately in an antimicrobial agent-inactivating medium (BHI medium or the like), and 1 mL each of the resulting diluent was smeared on a film medium. Culturing was carried out at the optimum temperature of each test microbe for 24 to 72 hours and the number of cells (cells/mL) on the film medium was measured.

The test system of test [2] is Escherichia coli. Described as above. In kind it is cell-based. On the procedure:
as §1, §2

[3] abbreviates: ε-poly-L-lysine 5 ppm, initial 1.2 × 10^7.
Setting [4] is: ε-poly-L-lysine 10 ppm, 0 minute later 2.3 × 10^4.
Setting [5] is: ε-poly-L-lysine 10 ppm, initial 1.2 × 10^7.
The mark [6] stands for this setting: ε-poly-L-lysine 5 ppm, initial 3.2 × 10^7.
[7] abbreviates: ε-poly-L-lysine 10 ppm, 0 minute later 2.5 × 10^6.
The mark [8] stands for this setting: ε-poly-L-lysine 10 ppm, initial 3.2 × 10^7.

For the substance ε-poly-L-lysine, the “number of cells 2 hours later” value in test [1] (10 ppm, pH 8, initial 4.3 × 10^4) is under 10 cells/mL; in test [1] (setting [3]), 4.2 × 10^3 cells/mL; in test [1] (setting [5]), 4.8 × 10^3 cells/mL; in test [2] (10 ppm, pH 8, initial 5.8 × 10^4) it was under 10 cells/mL; in test [2] (setting [6]), under 10 cells/mL; in test [2] (setting [8]), under 10 cells/mL. Further, the “number of cells 0.5 hour later” value is given as 4.0 × 10^4 cells/mL in test [1] (setting [3]), 5.0 × 10^4 cells/mL in test [1] (setting [5]), 3.2 × 10^3 cells/mL in test [2] (setting [6]) and 300 cells/mL in test [2] (setting [8]). In addition, the “number of cells 1 hour later” value in test [1] (setting [3]) is listed as 2.2 × 10^4 cells/mL; in test [1] (setting [5]), 7.0 × 10^3 cells/mL; in test [2] (setting [6]), under 10 cells/mL; in test [2] (setting [8]), under 10 cells/mL. The “number of cells 5 minutes later” value in test [1] (setting [4]) is given as 8.1 × 10^3 cells/mL; in test [2] (setting [7]), 1.32 × 10^4 cells/mL. Moreover, the “number of cells 15 minutes later” value in test [1] (setting [4]) is 2.55 × 10^3 cells/mL; in test [2] (setting [7]) it was 10 cells/mL. Further, the “number of cells 60 minutes later” value is listed as 2 × 10^3 cells/mL in test [1] (setting [4]) and under 10 cells/mL in test [2] (setting [7]). Further, the entries for the “number of cells 120 minutes later” value in test [1] (setting [4]) and in test [2] (setting [7]) were 440 cells/mL and under 10 cells/mL, respectively.

Values taken from patent publication US20110046040A1, “Microorganism-inactivating agent” (CHISSO CORPORATION, priority 2009, published 2011).
